{"source": "patent US20250275959A1", "about": "“COMPOUNDS AND METHODS OF THEIR USE” (LEXICON PHARMACEUTICALS, INC., priority 2024, published 2025)", "assay": "Murine diet-induced obesity (DIO) model, Compounds B-D study", "assay_type": "in vivo, C57BL/6J mice", "details": "DIO mice", "protocol": "The effects of four representative compounds of the invention were tested in a mouse model of diet-induced obesity (DIO): • Compound A is (R)—N-(tert-butylsulfonyl)-4-(1-(5-(pyridin-3-yloxy)pyridin-2-yl)ethoxy)-3-(trifluoromethyl)benzamide; • Compound B is (R)-4-(1-(5-(cyclopropylmethoxy)pyridin-2-yl)propoxy)-N-((4-(2-(dimethylamino)ethoxy)phenyl)sulfonyl)-2,3-difluorobenzamide; • Compound C is (R)—N-((4-(2-(dimethylamino)ethoxy)piperidin-1l-yl)sulfonyl)-2,3-difluoro-4-(1-(5-(pyridin-2-yloxy)pyridin-2-yl)propoxy)benzamide; and • Compound D is (R)-2,3-difluoro-N-((4-methylpiperazin-1-yl)sulfonyl)-4-(1-(5-(pyridin-2-yloxy)pyridin-2-yl)propoxy)benzamide.\nThe mice used in these experiments were C57BL/6J mice fed a high-fat diet (D12492 from Research Diets) ad libitum during the study period. The vehicle and test article formulations were 10% w/v Solutol in water.\nIn this study, three compounds tested at 30 mg/kg were compared against vehicle control over a month. After their acclimation period, DIO mice were equally divided into groups of ten mice each based on body weight. The animals were pre-dosed for three days prior to formal dosing (once per day treatment every group), as well as weight and food intake were recorded from Day −2 onwards. From Day 1 to Day 27, the animals in the dosing group were administered orally by gavage at 5:00 p.m. every day. All animals were fasted overnight after dosing on Day 28 and Day 29. Then the blood (retro-orbital bleed) of mice from each group was collected at 7:00 a.m. to separate out the serum for measuring total cholesterol levels (TC), triglyceride (TG), aminotransferase alanine (ALT), aspartate aminotransferase (AST) and total bilirubin (TBil) levels on Day 29. On day 30, all animals were performed OGTT test (0 min, 15 min, 30 min, 60 min, 90 min and 120 min) and measured insulin levels (0 min, 15 min, 30 min and 60 min). On day 32, all animals were injected insulin after 4 hours fasting, then performed ITT test (0 min, 15 min, 30 min, 60 min and 90 min). On day 33, Epididymal white adipose tissue (eWAT), jejunum, liver, heart and brain were collected; eWAT, liver and heart weights were recorded. All of the adipose tissue in the abdominal cavity was collected and weighted, and the fatty tissue coefficient (body fat ratio) was calculated and then stored at −80° C. for inspection.\n• 1. Body weight and Food Consumption: Pre-dose every day from Day −2 onwards. • 2. Day −2,—1 and Day 0: Handle mice and gavage with vehicle. • 3. Day 1˜27: Dose˜5:00 PM. • 4. Day 28: Dose˜5:00 PM. Fast overnight. • 5. Day 29: Determine total cholesterol levels and triglyceride, ALT, AST, total bilirubin levels˜7:00 AM. Resume feeding. • 6. Day 29: Dose˜5:00 PM. Fast overnight. • 7. Day 30: (No drug administration) Oral glucose tolerance test (OGTT) with glucose levels measured at Pre-dose, 15 min, 30 min, 60 min, 90 min and 120 min after the glucose challenge. And insulin levels will be test at time 0 min, 15 min, 30 min and 60 min after the glucose challenge. • 8. Day 30˜31: Dose˜5:00 PM. • 9. Day 32: (No drug administration) ITT test (two days after the OGTT test): Fast 4 h. After insulin injection, the levels of glucose will be measured at Pre-dose, 15 min, 30 min, 60 min and 90 min. • 10. After the ITT test. Collect serum with a terminal bleed from all 50 mice. • 11. Collect epidydimal WAT (eWAT) pad, jejunum, liver, heart, and brain. • 12. Record eWAT, liver, and heart weights. • 13. Before freezing tissue/serum: • (i) Assess Drug Concentration; serum, liver, eWAT, heart, jujenum, and brain. (25 serum samples; 5 mice/group will progress to biomarker study and remaining 25 serum samples saved for future analysis). • 14. Prepare liver, heart and eWAT tissue for histopathology analysis. • (ii) Liver for all 50 mice; HE staining to assess liver steatosis. • (iii) Heart or all 50 mice; HE and DAPI staining to assess cardiac morphology. […]"}
{"compound": "CC[C@@H](Oc1ccc(C(=O)NS(=O)(=O)N2CCC(OCCN(C)C)CC2)c(F)c1F)c1ccc(Oc2ccccn2)cn1", "note": "[Compound C, (R)-N-((4-(2-(dimethylamino)ethoxy)piperidin-1-yl)sulfonyl)-2,3-difluoro-4-(1-(5-(pyridin-2-yloxy)pyridin-2-yl)propoxy)benzamide]", "values": [{"measurement": "mean body weight versus control group", "setting": "30 mg/kg oral daily", "value": "significantly lower than that of the control group from Day 23"}, {"measurement": "overall food consumption versus control group", "setting": "30 mg/kg oral daily", "value": "significantly lower than that of the control group"}, {"measurement": "Body Weight (g)/Day", "setting": "30 mg/kg oral daily, Day 1", "value": "45 ± 4.9", "unit": "g"}, {"measurement": "Body Weight (g)/Day", "setting": "30 mg/kg oral daily, Day 2", "value": "44.8 ± 5", "unit": "g"}, {"measurement": "Body Weight (g)/Day", "setting": "30 mg/kg oral daily, Day 3", "value": "44.3 ± 4.9", "unit": "g"}, {"measurement": "Body Weight (g)/Day", "setting": "30 mg/kg oral daily, Day 4", "value": "44.3 ± 4.9", "unit": "g"}, {"measurement": "Body Weight (g)/Day", "setting": "30 mg/kg oral daily, Day 5", "value": "44.1 ± 4.9", "unit": "g"}, {"measurement": "Body Weight (g)/Day", "setting": "30 mg/kg oral daily, Day 6", "value": "44 ± 4.7", "unit": "g"}, {"measurement": "Body Weight (g)/Day", "setting": "30 mg/kg oral daily, Day 7", "value": "43.5 ± 4.9", "unit": "g"}, {"measurement": "Body Weight (g)/Day", "setting": "30 mg/kg oral daily, Day 8", "value": "44 ± 5", "unit": "g"}, {"measurement": "Body Weight (g)/Day", "setting": "30 mg/kg oral daily, Day 9", "value": "44.2 ± 4.8", "unit": "g"}, {"measurement": "Body Weight (g)/Day", "setting": "30 mg/kg oral daily, Day 10", "value": "44.2 ± 4.7", "unit": "g"}, {"measurement": "Body Weight (g)/Day", "setting": "30 mg/kg oral daily, Day 11", "value": "44.4 ± 4.8", "unit": "g"}, {"measurement": "Body Weight (g)/Day", "setting": "30 mg/kg oral daily, Day 12", "value": "43.9 ± 4.9", "unit": "g"}, {"measurement": "Body Weight (g)/Day", "setting": "30 mg/kg oral daily, Day 13", "value": "43.7 ± 4.7", "unit": "g"}, {"measurement": "Body Weight (g)/Day", "setting": "30 mg/kg oral daily, Day 14", "value": "43.7 ± 4.7", "unit": "g"}, {"measurement": "Body Weight (g)/Day", "setting": "30 mg/kg oral daily, Day 15", "value": "43.9 ± 4.8", "unit": "g"}, {"measurement": "Body Weight (g)/Day", "setting": "30 mg/kg oral daily, Day 16", "value": "44.1 ± 4.8", "unit": "g"}, {"measurement": "Body Weight (g)/Day", "setting": "30 mg/kg oral daily, Day 17", "value": "43.5 ± 4.7", "unit": "g"}, {"measurement": "Body Weight (g)/Day", "setting": "30 mg/kg oral daily, Day 18", "value": "43.6 ± 4.6", "unit": "g"}, {"measurement": "Body Weight (g)/Day", "setting": "30 mg/kg oral daily, Day 19", "value": "43.9 ± 4.9", "unit": "g"}, {"measurement": "Body Weight (g)/Day", "setting": "30 mg/kg oral daily, Day 20", "value": "44.1 ± 4.8", "unit": "g"}, {"measurement": "Body Weight (g)/Day", "setting": "30 mg/kg oral daily, Day 21", "value": "44.2 ± 5", "unit": "g"}, {"measurement": "Body Weight (g)/Day", "setting": "30 mg/kg oral daily, Day 22", "value": "44.1 ± 5.1", "unit": "g"}, {"measurement": "Body Weight (g)/Day", "setting": "30 mg/kg oral daily, Day 23", "value": "44.1 ± 5.3", "unit": "g"}, {"measurement": "Body Weight (g)/Day", "setting": "30 mg/kg oral daily, Day 24", "value": "43.8 ± 5.3", "unit": "g"}, {"measurement": "Body Weight (g)/Day", "setting": "30 mg/kg oral daily, Day 25", "value": "43.9 ± 5.2", "unit": "g"}, {"measurement": "Body Weight (g)/Day", "setting": "30 mg/kg oral daily, Day 26", "value": "43.9 ± 5.2", "unit": "g"}, {"measurement": "Body Weight (g)/Day", "setting": "30 mg/kg oral daily, Day 27", "value": "44.1 ± 5.2", "unit": "g"}, {"measurement": "Body Weight (g)/Day", "setting": "30 mg/kg oral daily, Day 28", "value": "43.9 ± 5.3", "unit": "g"}, {"measurement": "Body Weight (g)/Day", "setting": "30 mg/kg oral daily, Day 29", "value": "43.2 ± 5.2", "unit": "g"}, {"measurement": "Body Weight (g)/Day", "setting": "30 mg/kg oral daily, Day 30", "value": "41.4 ± 5", "unit": "g"}, {"measurement": "Body Weight (g)/Day", "setting": "30 mg/kg oral daily, Day 31", "value": "41.6 ± 5.2", "unit": "g"}, {"measurement": "Body Weight (g)/Day", "setting": "30 mg/kg oral daily, Day 32", "value": "41 ± 5", "unit": "g"}, {"measurement": "Body Weight (g)/Day", "setting": "30 mg/kg, Day 0 (pre-dose)", "value": "44.9 ± 5.1", "unit": "g"}, {"measurement": "Body Weight (g)/Day", "setting": "30 mg/kg, Day −1 (pre-dose)", "value": "44.9 ± 5.3", "unit": "g"}, {"measurement": "Body Weight (g)/Day", "setting": "30 mg/kg, Day −2 (pre-dose)", "value": "44.8 ± 5.2", "unit": "g"}, {"measurement": "mean adipose weights versus control group", "setting": "30 mg/kg, abdominal adipose tissue", "value": "significantly lower than that of the control group"}, {"measurement": "ITT blood glucose versus control group", "setting": "Day 32, at 15, 30, 60 and 90 minutes after insulin", "value": "significantly lower than that of the control group"}]}
